From ChEMBL document CHEMBL1201862, “PubChem BioAssay data set” (2004)
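Briefly, cells in 96-well plates were exposed to five compound concentrations for 48 h, and endpoints were estimated by linear interpolation. The concentration for 50% growth inhibition is given as GI50.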 Activity calls are given as the source filed them. Cut-off read from the data, not from the text of the source: active = GI50 up to about 1.1 µM and inactive = higher. Starred links: 1 amine or outer side, 2 acyl side, 3 side chain; linkers in the order of their positions; H or OH if unused. Non-standard residues stand in square brackets, D forms with d. Residues, ends and D or L forms follow the SMILES beside them. X35 = C=CCC(O[*:1])C(=O)[*:2]; NMeV = CN[CH](C(=O)O)C(C)C; NMeA = CN[CH](C)C(=O)O; βAla = NCCC(=O)O

How the values were obtained:
Assay in all cases: DTP human tumour cell line panel, 48 h
[1] = test system: MCF7
[2] = test system: PC-3
[3] = test system: ACHN
[4] = test system: HOP-92
[5] = test system: NCI/ADR-RES
[6] = test system: HOP-62
[7] = test system: SK-MEL-28
[8] = test system: HCT-15
[9] = test system: OVCAR-4
[10] = test system: SF-539
[11] = test system: K562
[12] = test system: SF-295
[13] = test system: SNB-75
[14] = test system: U-251
[15] = test system: OVCAR-5
[16] = test system: Hs-578T
[17] = test system: SK-MEL-2
[18] = test system: MOLT-4
[19] = test system: A498
[20] = test system: DU-145

COc1ccc2c(c1)N=C1CSC(c3c(Cl)cccc3[N+](=O)[O-])N1C2 (configuration not stated)
GI50 [1]: 30.1 µM (inactive)
GI50 [2]: 40.6 µM (inactive)
GI50 [3]: 36.1 µM (inactive)
GI50 [4]: 40 µM (inactive)
GI50 [5]: 34.5 µM (inactive)
GI50 [6]: > 100 µM (inactive)
GI50 [7]: 20.5 µM (inactive)
GI50 [8]: 30.8 µM
GI50 [9]: 56.6 µM (inactive)
GI50 [10]: 37.2 µM (inactive)
GI50 [11]: 35.4 µM (inactive)
GI50 [12]: 40.6 µM (inactive)
GI50 [13]: 25.1 µM (inactive)
GI50 [14]: 54.2 µM (inactive)
GI50 [15]: > 100 µM (inactive)
GI50 [16]: 45.4 µM (inactive)
GI50 [17]: 35.4 µM (inactive)
GI50 [18]: 20 µM (inactive)

O=C=NCCCCCCN1C(=O)N2C(c3ccccc3)N(CCCCCCN=C=O)C(=O)N2C1c1ccccc1 (configuration not stated)
GI50 [1]: > 100 µM (inactive)
GI50 [2]: > 100 µM (inactive)
GI50 [3]: > 100 µM (inactive)
GI50 [4]: > 100 µM (inactive)
GI50 [5]: > 100 µM (inactive)
GI50 [6]: > 100 µM (inactive)
GI50 [19]: > 100 µM (inactive)
GI50 [7]: > 100 µM (inactive)
GI50 [8]: > 100 µM
GI50 [9]: > 100 µM (inactive)
GI50 [10]: > 100 µM (inactive)
GI50 [11]: > 100 µM (inactive)
GI50 [12]: > 100 µM (inactive)
GI50 [20]: > 100 µM (inactive)
GI50 [13]: > 100 µM (inactive)
GI50 [14]: > 100 µM (inactive)
GI50 [15]: > 100 µM (inactive)
GI50 [17]: > 100 µM (inactive)
GI50 [18]: 62.1 µM (inactive)

O=C1CCC2(CCO1)OCCO2
GI50 [1]: > 100 µM (inactive)
GI50 [2]: > 100 µM (inactive)
GI50 [3]: > 100 µM (inactive)
GI50 [5]: > 100 µM (inactive)
GI50 [6]: > 100 µM (inactive)
GI50 [7]: > 100 µM (inactive)
GI50 [8]: > 100 µM
GI50 [9]: > 100 µM (inactive)
GI50 [10]: > 100 µM (inactive)
GI50 [11]: > 100 µM (inactive)
GI50 [12]: > 100 µM (inactive)
GI50 [20]: > 100 µM (inactive)
GI50 [13]: > 100 µM (inactive)
GI50 [14]: > 100 µM (inactive)
GI50 [15]: > 100 µM (inactive)
GI50 [16]: > 100 µM (inactive)
GI50 [17]: > 100 µM (inactive)
GI50 [18]: > 100 µM (inactive)

CCc1n[nH]c(=O)n1N1C(=O)CCC1=O
GI50 [1]: > 100 µM (inactive)
GI50 [2]: > 100 µM (inactive)
GI50 [3]: > 100 µM (inactive)
GI50 [5]: > 100 µM (inactive)
GI50 [6]: > 100 µM (inactive)
GI50 [19]: > 100 µM (inactive)
GI50 [7]: > 100 µM (inactive)
GI50 [8]: > 100 µM
GI50 [9]: > 100 µM (inactive)
GI50 [11]: > 100 µM (inactive)
GI50 [12]: > 100 µM (inactive)
GI50 [20]: > 100 µM (inactive)
GI50 [13]: > 100 µM (inactive)
GI50 [14]: > 100 µM (inactive)
GI50 [15]: > 100 µM (inactive)
GI50 [16]: > 100 µM (inactive)
GI50 [17]: > 100 µM (inactive)
GI50 [18]: > 100 µM (inactive)

CCOC(=O)C(=CN1CCNC1=S)C(=O)OCC
GI50 [1]: > 100 µM (inactive)
GI50 [2]: > 100 µM (inactive)
GI50 [3]: > 100 µM (inactive)
GI50 [5]: > 100 µM (inactive)
GI50 [6]: > 100 µM (inactive)
GI50 [19]: 18.2 µM (inactive)
GI50 [7]: > 100 µM (inactive)
GI50 [8]: > 100 µM
GI50 [9]: > 100 µM (inactive)
GI50 [10]: > 100 µM (inactive)
GI50 [11]: > 100 µM (inactive)
GI50 [12]: > 100 µM (inactive)
GI50 [20]: > 100 µM (inactive)
GI50 [14]: > 100 µM (inactive)
GI50 [15]: > 100 µM (inactive)
GI50 [17]: > 100 µM (inactive)
GI50 [18]: > 100 µM (inactive)

N#CC(C/C=C/c1ccccc1)NNC(=O)c1c(Cl)c(Cl)c(Cl)c(Cl)c1-c1nc2cc(C(=O)c3ccccc3)ccc2[nH]1 (configuration not stated)
GI50 [1]: 7.94 µM (inactive)
GI50 [2]: 10.9 µM (inactive)
GI50 [3]: 25.9 µM (inactive)
GI50 [4]: 16.2 µM (inactive)
GI50 [5]: 12.9 µM (inactive)
GI50 [6]: 6.14 µM (inactive)
GI50 [19]: 9.23 µM (inactive)
GI50 [7]: 16.3 µM (inactive)
GI50 [8]: 11.6 µM
GI50 [9]: 14 µM (inactive)
GI50 [10]: 9.86 µM (inactive)
GI50 [11]: 6.34 µM (inactive)
GI50 [12]: 3.92 µM (inactive)
GI50 [20]: 18.5 µM (inactive)
GI50 [13]: 17.4 µM (inactive)
GI50 [14]: 12.5 µM (inactive)
GI50 [15]: 28.9 µM (inactive)
GI50 [17]: 17.5 µM (inactive)
GI50 [18]: 13.4 µM (inactive)

C=CCC1OC(=O)CCNC(=O)C(C)N(C)C(=O)C(C(C)C)N(C)C(=O)C(C(C)CC)NC(=O)C2CCCN2C1=O (configuration not stated) (cyclo([X35]PI[NMeV][NMeA][βAla]); configuration not given here)
GI50 [1]: > 100 µM (inactive)
GI50 [2]: 5.85 µM (inactive)
GI50 [3]: 18.4 µM (inactive)
GI50 [4]: 21.7 µM (inactive)
GI50 [5]: > 100 µM (inactive)
GI50 [6]: 10.2 µM (inactive)
GI50 [7]: 42.7 µM (inactive)
GI50 [8]: 23.2 µM
GI50 [9]: 66.8 µM (inactive)
GI50 [10]: 45.1 µM (inactive)
GI50 [12]: 4.08 µM (inactive)
GI50 [20]: 44.9 µM (inactive)
GI50 [13]: 1.25 µM (inactive)
GI50 [14]: 49.5 µM (inactive)
GI50 [15]: > 100 µM (inactive)
GI50 [16]: 91.6 µM (inactive)
GI50 [17]: 9.08 µM (inactive)
GI50 [18]: 2.11 µM (inactive)
